Laboratory results from PubChem BioAssay AID328 (DTP/NCI, 2004).
Values joined by “and” are separate entries in the source; they are usually repeats but may differ in a detail not shown here. Identical values can stand only once. Toxic doses and inconclusive results are not listed.

Test system: BDF1 mice, P388 leukemia ip, median survival T/C
Assay: NCI In Vivo Anticancer Drug Screen. Data for tumor model P388 Leukemia (intraperitoneal) in B6D2F1 (BDF1) mice
Settings: endpoint: median survival time, higher = longer survival
In short: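 Reported as T/C, where T is the survival measurement in dosed animals and C the same measurement in vehicle controls.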

[1] = dose: 50.0 mg/kg/injection, schedule: Q01DX009 (ip), vehicle: saline with Tween-80
[2] = dose: 100.0 mg/kg/injection, schedule: Q01DX009 (ip), vehicle: saline with Tween-80
[3] = dose: 200.0 mg/kg/injection, schedule: Q01DX009 (ip), vehicle: saline with Tween-80
[4] = dose: 25.0 mg/kg/injection, schedule: Q04DX003 (ip), vehicle: saline with Tween-80
[5] = dose: 50.0 mg/kg/injection, schedule: Q04DX003 (ip), vehicle: saline with Tween-80
[6] = dose: 25.0 mg/kg/injection, schedule: Q01DX009 (ip), vehicle: saline with Tween-80
[7] = dose: 400.0 mg/kg/injection, schedule: Q01DX009 (ip), vehicle: saline with Tween-80
[8] = dose: 5.0 mg/kg/injection, schedule: Q04DX003 (ip), vehicle: saline with Tween-80
[9] = dose: 100.0 mg/kg/injection, schedule: Q01DX001 (ip), vehicle: Klucel (hydroxypropylcellulose) (HPC)
[10] = dose: 200.0 mg/kg/injection, schedule: Q01DX001 (ip), vehicle: Klucel (hydroxypropylcellulose) (HPC)
[11] = dose: 400.0 mg/kg/injection, schedule: Q01DX001 (ip), vehicle: Klucel (hydroxypropylcellulose) (HPC)

O=C1CC(Nc2ccccc2)=C([N+](=O)[O-])C(=O)N1
T/C [1]: 109 % of control
T/C [2]: 102 % of control
T/C [3]: 109 % of control

CCCCOc1cc(C(=O)O)ccc1[N+](=O)[O-]
T/C [4]: 100 % of control
T/C [5]: 100 % of control
T/C (dose: 100.0 mg/kg/injection, schedule: Q04DX003 (ip), vehicle: saline with Tween-80): 104 % of control

CCCCCCCCCSC(=S)N(C)NC(=O)c1ccccn1
T/C [1]: 98 % of control
T/C [2]: 98 % of control

COc1cccc2c(Cl)c(CCl)c(C)nc12
T/C (dose: 6.25 mg/kg/injection, schedule: Q01DX009 (ip), vehicle: saline with Tween-80): 94 % of control
T/C (dose: 12.5 mg/kg/injection, schedule: Q01DX009 (ip), vehicle: saline with Tween-80): 110 % of control
T/C [6]: 103 % of control
T/C [1]: 103 % of control
T/C [2]: 103 % of control

CN1CCN(C)P1OCC(F)(F)F
T/C (dose: 25.0 mg/kg/injection, schedule: Q01DX005 (ip), vehicle: saline): 87 % of control
T/C (dose: 50.0 mg/kg/injection, schedule: Q01DX005 (ip), vehicle: saline): 100 % of control
T/C (dose: 100.0 mg/kg/injection, schedule: Q01DX005 (ip), vehicle: saline): 87 % of control

CCCC/C(C=O)=C\NC(=O)Nc1ccccc1
T/C (dose: 50.0 mg/kg/injection, schedule: Q04DX002 (ip), vehicle: saline with Tween-80): 100 % of control
T/C (dose: 100.0 mg/kg/injection, schedule: Q04DX002 (ip), vehicle: saline with Tween-80): 90 % of control
T/C (dose: 200.0 mg/kg/injection, schedule: Q04DX002 (ip), vehicle: saline with Tween-80): 98 % of control

CCOC(=O)c1ccc(NS(=O)(=O)c2ccc(C)cc2)cc1
T/C [2]: 106 % of control
T/C [3]: 106 % of control
T/C [7]: 88 % of control

O=NN(CCCl)C(=O)NC1CSCSC1
T/C (dose: 0.7 mg/kg/injection, schedule: Q01DX009 (ip), vehicle: saline with Tween-80): 92 % of control
T/C (dose: 1.7 mg/kg/injection, schedule: Q01DX009 (ip), vehicle: saline with Tween-80): 151 % of control
T/C (dose: 2.6 mg/kg/injection, schedule: Q01DX009 (ip), vehicle: saline with Tween-80): 159 % of control
T/C (dose: 3.0 mg/kg/injection, schedule: Q04DX003 (ip), vehicle: saline with Tween-80): 119 % of control
T/C (dose: 4.0 mg/kg/injection, schedule: Q01DX009 (ip), vehicle: saline with Tween-80): 250 % of control and 192 % of control
T/C [8]: 152 % of control
T/C (dose: 6.0 mg/kg/injection, schedule: Q01DX009 (ip), vehicle: saline with Tween-80): 230 % of control and 250 % of control
T/C (dose: 8.0 mg/kg/injection, schedule: Q04DX003 (ip), vehicle: saline with Tween-80): 185 % of control
T/C (dose: 9.0 mg/kg/injection, schedule: Q01DX009 (ip), vehicle: saline with Tween-80): 187 % of control
T/C (dose: 12.0 mg/kg/injection, schedule: Q01DX009 (ip), vehicle: saline with Tween-80): 184 % of control
T/C (dose: 12.0 mg/kg/injection, schedule: Q04DX003 (ip), vehicle: saline with Tween-80): 272 % of control and 285 % of control
T/C (dose: 18.0 mg/kg/injection, schedule: Q04DX003 (ip), vehicle: saline with Tween-80): 204 % of control
T/C [6]: 90 % of control
T/C [4]: 240 % of control and 172 % of control
T/C (dose: 37.0 mg/kg/injection, schedule: Q04DX003 (ip), vehicle: saline with Tween-80): 272 % of control and 95 % of control

CCCCC(=O)N(c1ccc(Nc2c3ccccc3nc3cc([N+](=O)[O-])ccc23)cc1)S(C)(=O)=O
T/C (dose: 0.44 mg/kg/injection, schedule: Q01DX009 (ip), vehicle: saline with Tween-80): 167 % of control
T/C (dose: 0.66 mg/kg/injection, schedule: Q01DX009 (ip), vehicle: saline with Tween-80): 180 % of control
T/C (dose: 1.0 mg/kg/injection, schedule: Q01DX009 (ip), vehicle: saline with Tween-80): 194 % of control
T/C (dose: 1.5 mg/kg/injection, schedule: Q01DX009 (ip), vehicle: saline with Tween-80): 205 % of control
T/C (dose: 2.2 mg/kg/injection, schedule: Q04DX003 (ip), vehicle: saline with Tween-80): 154 % of control
T/C (dose: 3.3 mg/kg/injection, schedule: Q04DX003 (ip), vehicle: saline with Tween-80): 150 % of control
T/C [8]: 186 % of control
T/C (dose: 12.5 mg/kg/injection, schedule: Q04DX003 (ip), vehicle: saline with Tween-80): 218 % of control
T/C (dose: 22.0 mg/kg/injection, schedule: Q04DX003 (ip), vehicle: saline with Tween-80): 250 % of control
T/C [4]: 245 % of control
T/C (dose: 33.0 mg/kg/injection, schedule: Q04DX003 (ip), vehicle: saline with Tween-80): 175 % of control and 209 % of control
T/C [5]: 225 % of control and 272 % of control and 181 % of control
T/C (dose: 75.0 mg/kg/injection, schedule: Q04DX003 (ip), vehicle: saline with Tween-80): 109 % of control and 204 % of control

CN(C)CCC(O)c1c[nH]c2ccccc12 (stereo not given)
T/C [2]: 99 % of control
T/C [3]: 97 % of control
T/C [7]: 90 % of control

CC(=O)OCCC/C(=C/c1ccc(/C=C(\CCCOC(C)=O)[N+](=O)[O-])cc1)[N+](=O)[O-]
T/C (dose: 50.0 mg/kg/injection, schedule: Q04DX003 (ip), vehicle: Klucel (hydroxypropylcellulose) (HPC)): 96 % of control
T/C (dose: 100.0 mg/kg/injection, schedule: Q04DX003 (ip), vehicle: Klucel (hydroxypropylcellulose) (HPC)): 101 % of control
T/C (dose: 200.0 mg/kg/injection, schedule: Q04DX003 (ip), vehicle: Klucel (hydroxypropylcellulose) (HPC)): 101 % of control

NC(=O)NO.NC(=O)NO.[Cl][Ni][Cl]
T/C (dose: 3.12 mg/kg/injection, schedule: Q01DX009 (ip), vehicle: saline): 92 % of control

O=C(Nc1ccc(C2=NCCN2)cc1)c1cccc(C(=O)Nc2ccc(C3=NCCN3)cc2)c1
T/C (dose: 8.0 mg/kg/injection, schedule: Q01DX010 (ip), vehicle: saline): 160 % of control
T/C (dose: 16.0 mg/kg/injection, schedule: Q01DX010 (ip), vehicle: saline): 163 % of control and 180 % of control
T/C (dose: 32.0 mg/kg/injection, schedule: Q01DX010 (ip), vehicle: saline): 195 % of control and 200 % of control
T/C (dose: 64.0 mg/kg/injection, schedule: Q01DX010 (ip), vehicle: saline): 235 % of control and 200 % of control

COc1ccc2[nH]c3c(c2c1)CSc1ccccc1-3
T/C [9]: 91 % of control
T/C [10]: 108 % of control
T/C [11]: 108 % of control

O=C(CCCc1ccc(N(CCCl)CCCl)cc1)Nc1ncccn1
T/C (dose: 2.0 mg/kg/injection, schedule: Q01DX009 (ip), vehicle: Klucel (hydroxypropylcellulose) (HPC)): 88 % of control
T/C (dose: 3.0 mg/kg/injection, schedule: Q01DX009 (ip), vehicle: Klucel (hydroxypropylcellulose) (HPC)): 115 % of control
T/C (dose: 6.0 mg/kg/injection, schedule: Q01DX009 (ip), vehicle: Klucel (hydroxypropylcellulose) (HPC)): 152 % of control
T/C (dose: 8.0 mg/kg/injection, schedule: Q01DX009 (ip), vehicle: Klucel (hydroxypropylcellulose) (HPC)): 188 % of control
T/C (dose: 18.0 mg/kg/injection, schedule: Q01DX009 (ip), vehicle: Klucel (hydroxypropylcellulose) (HPC)): 112 % of control
T/C (dose: 25.0 mg/kg/injection, schedule: Q01DX009 (ip), vehicle: Klucel (hydroxypropylcellulose) (HPC)): 92 % of control

c1ccc(-c2[nH]c3ccccc3c2-c2ccccc2)cc1
T/C [9]: 109 % of control
T/C [10]: 113 % of control
T/C [11]: 122 % of control

OCC1OC(n2cnc3c(SSc4ncnc5c4ncn5C4OC(CO)C(O)C4O)ncnc32)C(O)C1O (stereo not given)
T/C (dose: 118.0 mg/kg/injection, schedule: Q01DX010 (ip), vehicle: saline): 104 % of control
T/C (dose: 178.0 mg/kg/injection, schedule: Q01DX010 (ip), vehicle: saline): 104 % of control

Cc1c(N=Cc2ccccc2)c(=O)n(-c2ccccc2)n1C
T/C (dose: 100.0 mg/kg/injection, schedule: Q01DX009 (ip), vehicle: gum acacia): 110 % of control
T/C (dose: 100.0 mg/kg/injection, schedule: Q04DX003 (ip), vehicle: gum acacia): 88 % of control
T/C (dose: 200.0 mg/kg/injection, schedule: Q01DX009 (ip), vehicle: gum acacia): 103 % of control
T/C (dose: 200.0 mg/kg/injection, schedule: Q04DX003 (ip), vehicle: gum acacia): 100 % of control
T/C (dose: 400.0 mg/kg/injection, schedule: Q01DX009 (ip), vehicle: gum acacia): 92 % of control
T/C (dose: 400.0 mg/kg/injection, schedule: Q04DX003 (ip), vehicle: gum acacia): 92 % of control

CC(=N\O)/C(C)=N/O.CC(=N\O)/C(C)=N/O.[Cl][Rh][Cl]
T/C (dose: 25.0 mg/kg/injection, schedule: Q01DX009 (ip), vehicle: saline): 94 % of control
T/C (dose: 50.0 mg/kg/injection, schedule: Q01DX009 (ip), vehicle: saline): 119 % of control
T/C (dose: 100.0 mg/kg/injection, schedule: Q01DX009 (ip), vehicle: saline): 95 % of control and 119 % of control
T/C (dose: 200.0 mg/kg/injection, schedule: Q01DX009 (ip), vehicle: saline): 100 % of control
